# What was measured:
# [1] = ASO concentration in mouse nervous tissue after intraventricular administration (quantitative RT-PCR relative to U6 snRNA); format: in vivo
# Procedure: Seven-week-old female ICR mice anesthetized with 2.5 to 4% isoflurane were fixed to a brain stereotaxic apparatus. Then, skin between the ears was cut open 2 to 3 cm anteroposteriorly, and perforated 1 mm leftward and 0.2 mm posteriorly from the bregma using a 1 mm diameter drill. A Hamilton syringe was filled with the nucleic acid agent. Through the perforated site, a needle was inserted approximately 3 mm deep. The ASO at a dose of 0.95 nmol (5 μg) per mouse was administered into the left lateral ventricle (n=4 to 7/group). The group to which ASO and TGN-073 were coadministered (hereinafter, the group is referred to as the “ASO/TGN-073 coadministration group”) means that ASO mixed with TGN-073 was administered. The group to which only ASO was administered (hereinafter, the group is referred to as the “ASO single administration group”) means that only ASO was administered without being mixed with TGN-073. The dose of TGN-073 in the ASO/TGN-073 coadministration group was 0.25 mg per mouse. After the intraventricular administration, the skin was sutured with a nylon thread. In addition, mice to which only TGN-073 was administered (hereinafter, the mice are referred to as the “TGN-073 administration group”) and mice to which only PBS was administered (hereinafter, the mice are referred to as the “PBS administration group”) were produced as controls.
# A left hippocampus was extirpated from each of the mice at 3 hours or 7 days after the intraventricular administration. Using an IsogenI kit (GeneDesign Inc.), RNA was extracted from the left hippocampus extirpated. A cDNA was synthesized using Transcriptor Universal cDNA Master, DNase (Roche Diagnostics) in accordance with the protocol.
# The intracerebral ASO concentration (the amount of the nucleic acid delivered to the brain) was measured by extracting RNA from the left hippocampus extirpated in the same manner as described above, and performing quantitative RT-PCR using a primer pair for amplifying ASO and TaqMan Small RNA Assay (Roche Applied Science). The intracerebral ASO concentration was obtained by calculating the ASO content relative to U6 snRNA (an internal standard gene). […]
# Mapt mRNA = Mapt mRNA expression level in the hippocampus after intraventricular administration (target gene suppression effect); format: in vivo, mouse; details: 7 days
# Procedure: Seven-week-old female ICR mice anesthetized with 2.5 to 4% isoflurane were fixed to a brain stereotaxic apparatus. Then, skin between the ears was cut open 2 to 3 cm anteroposteriorly, and perforated 1 mm leftward and 0.2 mm posteriorly from the bregma using a 1 mm diameter drill. A Hamilton syringe was filled with the nucleic acid agent. Through the perforated site, a needle was inserted approximately 3 mm deep. The ASO at a dose of 0.95 nmol (5 μg) per mouse was administered into the left lateral ventricle (n=4 to 7/group). The group to which ASO and TGN-073 were coadministered (hereinafter, the group is referred to as the “ASO/TGN-073 coadministration group”) means that ASO mixed with TGN-073 was administered. […]
# Next, quantitative RT-PCR was performed with TaqMan (Roche Applied Science). Primers used in quantitative RT-PCR were products designed and manufactured by Thermo Fisher Scientific Inc. (formerly known as Life Technologies Corp.) on the basis of the various numbers of genes. […] The ratio of the expression amount of Malat1 RNA to the expression amount of Actb mRNA (internal standard gene) was calculated, and a value standardized with respect to the value of the PBS-treated group was determined as a relative Malat1 RNA level. […]
# [2] = Evaluation of central nervous system toxicity (acute tolerability score); format: in vivo, mouse; details: intraventricular
# Procedure: On the ASO described in Table 2, the preparation of the nucleic acid, an in vivo experiment, and the evaluation of the target gene suppression effect were performed by the same methods as in Example 1. In this Example, however, the dose of the nucleic acid agent per mouse was 9.4 nmol (50 μg).
# By the below-described methods, evaluation of central nervous system toxicity and evaluation of motor function were performed on mice after intraventricular administration.
# In the evaluation of central nervous system toxicity, the behavior was evaluated, using the scoring system shown in FIG. 6, at 30 minutes, 1 hour, and 2 hours after the intraventricular administration. According to the scoring system shown in FIG. 6, the behaviors classified into five categories were evaluated (Categories 1 to 5 in FIG. 6). Each category comprises two behavior evaluation items. Each behavior evaluation item is rated in five stages from 0 to 4 points (Scores 0 to 4 in FIG. 6). A normal behavior is given 0 point, and higher toxicity is given a higher score. In each category, the higher score in the two behavior evaluation items is adopted as the score for the category. The total value of the scores for the five categories is defined as an acute tolerability score (0 to 20 points).
# [3] = IgG antibody concentration in left hippocampus after intraventricular administration (Alexa 647 fluorescence); format: in vivo; details: coadministered with IgG antibody (10 μg/mouse), TGN-073 250 μg/mouse, 3 hours
# Procedure: In this Example, an Alexa 647 fluorescence-labeled IgG antibody (Goat anti-Rabbit IgG (H+L) Highly Cross-Adsorbed Secondary Antibody, Alexa Fluor (trademark)647, #A-21245, Invitrogen) alone or in combination with TGN-073 (250 μg/mouse) was administered at a dose of 10 μg/mouse to the left lateral ventricle of an 8-week-old ICR mouse (female). Hereinafter, the mice to which the IgG antibody alone was intraventricularly administered are referred to as the “IgG antibody single administration group”, and the mice to which the IgG antibody and TGN-073 were intraventricularly administered together are referred to as the “IgG/TGN-073 coadministration group”. Brain tissue samples of the left hippocampus were collected from the mice at 3 hours after the intraventricular administration. Using a fluorescence plate reader (M1000Pro, Tecan Group Ltd.), the Alexa 647 fluorescence intensity per brain weight was measured to thereby evaluate the concentration of the IgG antibody.
# Aquaporin-4 = details: as disclosed in WO2017/150704 and Huber V. J. et al., NeuroReport, 2018; cited from earlier work
structure (smiles),measurement,setting,value
"O=S(=O)(Nc1ncccc1OCc1ccccc1)c1ccccc1 [TGN-073, N-(3-benzyloxypyridin-2-yl)-benzene-sulfonamide]",ASO concentration in the central nervous system (hippocampus) vs ASO single administration,"[1]; Example 7, coadministered with Mapt-targeting ASO of Table 6 (9.4 nmol, 50 μg), TGN-073-mes 0.125 mg/mouse per method, 7 days",marked enhancement
same,ASO concentration in the central nervous system (hippocampus) vs nucleic acid agent alone,"[1]; coadministered with ASO (single-stranded, 0.95 nmol), 7 days",dramatic increase
same,ASO concentration in the central nervous system (hippocampus) vs nucleic acid agent alone,"[1]; coadministered with Chol-HDO (0.95 nmol), 7 days",dramatic increase
same,ASO concentration in the central nervous system (hippocampus) vs nucleic acid agent alone,"[1]; coadministered with HDO (0.95 nmol), 7 days",dramatic increase
same,ASO concentration in the hippocampus (amount of nucleic acid delivered to the brain) vs ASO single administration,"[1]; coadministered with Malat1-targeting ASO (0.95 nmol, 5 μg), TGN-073 0.25 mg per mouse, 3 hours or 7 days",dramatic increase
same,ASO concentration in the lumbar cord portion vs ASO single administration,"[1]; coadministered with Malat1-targeting ASO (1.7 nmol, 12.5 μg), 7 days",dramatic increase
same,Target gene (Mapt) suppression effect in the hippocampus vs ASO single administration,"Mapt mRNA; Example 7, coadministered with Mapt-targeting ASO of Table 6 (9.4 nmol, 50 μg), TGN-073-mes 0.125 mg/mouse per method",marked enhancement
same,Target gene (Mapt) suppression effect in the hippocampus vs ASO single administration,"Mapt mRNA; coadministered with Mapt-targeting ASO of Table 2 (9.4 nmol, 50 μg)",marked augmentation
same,Central nervous system toxicity,"[2]; TGN-073 single administration, 30 minutes, 1 hour, and 2 hours",no toxicity
same,Acute tolerability score,"[2]; TGN-073 single administration, 30 minutes, 1 hour, and 2 hours, scale 0 to 20 points",0
same,Acute tolerability score vs ASO single administration,"[2]; coadministered with Mapt-targeting ASO (50 μg), 30 minutes, 1 hour, 2 hours",substantially the same acute tolerability score as the ASO single administration group
same,Augmentation of neurotoxicity by TGN-073 coadministration,[2]; coadministered with Mapt-targeting ASO,no recognizable augmentation of neurotoxicity at all
same,IgG antibody concentration in the central nervous system (left hippocampus) vs IgG antibody single administration,[3],dramatic increase
same,Promotion of the function of Aquaporin-4,Aquaporin-4,can promote the function of Aquaporin-4

# Source: patent US20260347843A1, “NERVOUS SYSTEM DELIVERY ENHANCER” (priority 2022, published 2026)
